Columns and labels:
Type in all cases: in vitro ADME
[1] = test system: plasma protein of CD-1 mice; assay: Protein binding rate by equilibrium dialysis, CD-1 mice plasma; settings: for Protein unbound rate: CD-1 mice plasma, 2 μM, dialysis 4 hours
Method: Purpose of the assay: Protein binding rate of the assay compounds in plasma of CD-1 mice, SD rats, beagle dogs, cynomolgus monkeys and human was determined by equilibrium dialysis.
Procedure of the assay: Plasma samples with a compound concentration of 2 μM were prepared using plasma of the above five species, placed in a 96-well equilibrium dialysis device, and dialyzed with phosphate buffer solution at 37±1° C. for 4 hours. Warfarin was used as the control compound in this assay. The concentrations of the assay compounds in plasma and dialysis buffer were determined by LC-MS/MS method.

[2] = Stability assay in whole blood, beagle dogs; settings: 5 μM, 37° C.
Method: (§1) Purpose of the assay: Stabilities of the assay compounds in whole blood of CD-1 mice, SD rats, Beagle dogs and cynomolgus monkeys were assayed, respectively.
(§2) Procedure of the assay: On the day of the assay or the day before the assay, fresh whole blood from CD-1 mice, SD rats, beagle dogs, and cynomolgus monkeys was collected using anticoagulant EDTA-K2. Prior to the start of the assay, the whole blood was mixed with PBS in 1:1 (v:v) and the mixture was preheated in a 37° C. water bath for 10-20 minutes. […] […] All samples were incubated in a 37° C. water bath. The final incubation concentration of the compound was 5 μM and the final incubation concentration of the control compound was 2 μM. At the end of incubation for each time point, the corresponding incubation plate was removed and 100 μL of ultrapure water was immediately added to the corresponding sample wells, and mixed well. 800 μL of a solution of 200 ng/mL tolbutamide and labetalol in acetonitrile was added to precipitate the protein. The sample plates were sealed and shaken well, and then centrifuged at 3220×g for 20 min. 150 μL of supernatant was taken out and analyzed by LC/MS/MS.

[3] = In vitro stability in liver microsomes, cynomolgus monkeys; settings: 0.5 mg/mL
Method: Purpose of the assay: Metabolic stabilities of the assay compounds in liver microsomes of CD-1 mice, SD rats, beagle dogs, cynomolgus monkeys, and human were assayed, respectively.
Procedure of the assay: Two 96-well incubation plates were prepared and named T60 incubation plate and NCF60 incubation plate, respectively. 445 μL of microsomal working solutions (liver microsomal protein concentration of 0.56 mg/mL) were added to the T60 incubation plate and the NCF60 incubation plate, respectively, and then the above incubation plates were pre-incubated in a 37° C. water bath for about 10 minutes.
After the pre-incubation, 5 μL of working solutions of the assay sample or the control compound were added to the T60 incubation plate and the NCF60 incubation plate, respectively, and the mixture was mixed well. 50 μL of potassium phosphate buffer was added to each well of the NCF60 incubation plate to initiate the reaction. 180 μL of stop solution (200 ng/mL tolbutamide and 200 ng/mL labetalol in acetonitrile) and 6 uL of NADPH regeneration system working solution were added to the T0 stop plate, and 54 μL of sample was transferred from T60 incubation plate to T0 stop plate (generation of TO sample). The reaction was initiated by adding 44 μL of NADPH regeneration system working solution to each well of the T60 incubation plate. Only 54 μL of microsome working solution, 6 uL of NADPH regeneration system working solution and 180 μL of stop solution were added to the Blank plate. Therefore, in samples of the assay compound or the control compound, the final reaction concentration of compound, testosterone, diclofenac and propafenone was 1 μM, the concentration of liver microsomes was 0.5 mg/mL, and the final reaction concentrations of DMSO and acetonitrile in the reaction system were 0.01% (v/v) and 0.99% (v/v), respectively.
After an appropriate time (e.g., 5, 15, 30, 45 and 60 minutes) of incubation, 180 μL of stop solutions (200 ng/mL tolbutamide and 200 ng/mL labetalol in acetonitrile) were added to the sample wells of each stop plate, respectively. 60 μL of sample was removed from the T60 incubation plate to stop the reaction. All sample plates were shaken well and then centrifuged at 3220×g for 20 minutes. Then 80 μL of supernatant was taken out from each well, and diluted in 240 μL of pure water for liquid chromatography-tandem mass spectrometry analysis. All samples were injected and analyzed by liquid chromatography-tandem mass spectrometry.

[4] = Stability assay in whole blood, cynomolgus monkeys; settings: 5 μM, 37° C.
Method: as §1, §2

[5] = Metabolic stability in hepatocytes, CD-1 mice; settings: CD-1 mice hepatocytes
Method: Purpose of the assay: Metabolic stabilities of assay compounds in hepatocytes of CD-1 mice, SD rats, beagle dogs, cynomolgus monkeys, and human were assayed, respectively.
Procedure of the assay: Several 96-well sample precipitation plates were prepared and named T0, T15, T30, T60, T90, T120, TO-MC, T120-MC and blank substrates, respectively. The recovery medium and incubation medium were taken out in advance and placed in a 37° C. water bath for pre-heating. Cryopreserved hepatocytes were removed from the liquid nitrogen tank and immediately immersed in a 37° C. water bath (approximately 90 seconds). After the cryopreserved hepatocytes had thawed and loosened, they were poured into a centrifuge tube containing 40 mL of recovery medium, and the tube was gently inverted to allow the cells to be resuspended in the recovery medium. The cells were centrifuged at 100×g at room temperature for 5 min, and the supernatant was removed. The hepatocytes were resuspended in an appropriate volume of incubation medium, and the cell viability was calculated by Trypan Blue staining method. 198 μL of hepatocyte suspension (0.51×10^6 cells/mL) was added to the preheated incubation plate. For the culture medium control group, 198 μL of hepatocyte-free incubation medium was added to T0-MC and T120-MC incubation plate. All incubation plates were pre-incubated in a 37° C. incubator for 10 minutes. Then 2 μL of working solutions of the assay sample and the control compound were added, respectively, and the mixture was mixed well. The incubation plate was immediately put into the shaker in the incubator, and the reaction was initiated while starting the timer. For each time point of each compound, 2 duplicate samples were prepared. The incubation conditions were 37° C., saturated humidity, and 5% CO2. In the assay system, the final concentration of the assay sample was 1 μM, the final concentration of the control sample was 3 μM, the final concentration of hepatocytes was 0.5×10^6 cells/mL, and the final concentration of the total organic solvent was 0.96%, of which the final concentration of DMSO was 0.1%. At the end of the incubation for the corresponding time point, the incubation plate was taken out, and 25 μL of a mixture of compound and control compound with cells was added to the sample plate containing 125 μL of stop solution (200 ng/mL tolbutamide and labetalol in acetonitrile). For the Blank sample plate, 25 μL of hepatocyte-free incubation medium was added directly. After sealing, all sample plates were shaken on a shaker at 600 rpm for 10 minutes, and then centrifuged at 3220×g for 20 minutes. Supernatants of the assay sample and the control sample were diluted with ultrapure water at a ratio of 1:3. All samples were mixed well and analyzed by LC/MS/MS.

| Structure (SMILES) | Protein unbound rate [1] | Plasma protein unbound rate PPB (Unbound %) ([1]; mice, as listed in PK Table 9) [%] | Detection of assay compound content within 120 min [2] [%] | CLint(liver) ([3]; 1 μM) [mL/min/kg] | CLint(mic) ([3]; 1 μM) [µL/min/mg] | T1/2 ([3]; 1 μM) [min] | Detection of assay compound content within 120 min [4] [%] | CLint(hep) ([5]; 1 μM) [μL/min/10^6] | CLint(liver) ([5]; 1 μM) [mL/min/kg] | T1/2 ([5]; 1 μM) [min] | CLint scaled at 1 μM ([3]; cynomolgus monkey) [mL/min/kg] | half-life at 1 μM ([3]; cynomolgus monkey) [min] | half-life at 1 μM ([5]; mouse, cryopreserved hepatocytes) [min] | CLint scaled at 1 μM ([5]; mouse, cryopreserved hepatocytes, read-out: CLint(liver)) [mL/min/kg] |
| --- | --- | --- | --- | --- | --- | --- | --- | --- | --- | --- | --- | --- | --- | --- |
| C=C(F)C(=O)N1CCN(c2nc(OCC3CCCN3C)nc3c2COC(c2c(F)c(N)cc(C)c2C(F)(F)F)C3)CC1CC#N.Cl (single isomer, unassigned) [Compound 8B hydrochloride] | 12.0 | 12.0 | 96 | 80.3 | 59.5 | 23.3 | 58 | 76.3 | 906.0 | 18.2 | – | – | – | – |
| C=C(F)C(=O)N1CCN(c2nc(OC[C@@]34CCCN3C[C@H](F)C4)nc3c2COC(c2c(F)c(N)cc(C)c2C(F)(F)F)C3)C[C@@H]1CC#N (stereo partly shown) [Compound 17] | 1.5 | – | 102 | – | 225 | – | 77 | 146.3 | – | – | 303 | 6.2 | 9.5 | 1740 |

Reference: patent publication US12012404B2, “Pyrimidoheterocyclic compounds and application thereof” (D3 BIO (WUXI) CO., LTD., priority 2020, dated 2024)
